Assay results reported in patent US8674113B2, “Compounds” (Boehringer Ingelheim International GmbH, priority 2010, dated 2014).
Where two headings read alike, the source gives them in different places.

Target: mPGES-1 in A549 cells (Homo sapiens (Human), UniProt O14684)
Experiment: A549 cell-based assay (PGE2 formation, 50% human serum)
Procedure: Although the enzymatic assay is a high throughput assay the disadvantage is that it uses a recombinant protein which is not in its natural environment. Accordingly a cellular assay was established in which a cell line of human origin (A549) expressing the mPGES-1 protein was used. In addition in order to mimic the situation in humans in which compounds can be bound to plasma proteins 50% human serum is added in the assay.
A549 cells (ATCC: CCL-185) are grown to about 90% confluence in F-12K Nutrient Mixture (Kaighn's Mod. Gibco) containing 10% FBS in a humified incubator at 37° C. and 5% CO2. Cells were detached using Trypsin-EDTA. A549 cells were seeded in a 384-well collagene plate at a density of 7000 cells/well (50 μl) in F-12 medium containing 1% Penicillin-Streptomycin and 50% human serum. The cells were allowed to attach for 3-4 h. After that the cells were incubated for 20-24 h in F-12k medium supplemented with 50% human serum, 1% Penicillin-Streptomycin and containing IL-1β at a final concentration of 5 ng/ml as well as 10 nM arachidonic acid in the presence of a vehicle or a test compound. The total volume is 100 μl.
Concentrations of PGE2 in the cell free medium (10 μl) were measured using a commercially available HTRF kit from Cisbio (as described above). The PGE2 formation in the absence of test compound was taken as 100%.
IC50 values were derived from at 6-8 point titrations using conventional software.

[1] = IL-1β 5 ng/ml, 10 nM arachidonic acid, 20-24 h, read-out: mPGES-1 inhibitory effect IC50 in the cell assay

mPGES-1 in A549 cells, sequence (O14684 whole entry): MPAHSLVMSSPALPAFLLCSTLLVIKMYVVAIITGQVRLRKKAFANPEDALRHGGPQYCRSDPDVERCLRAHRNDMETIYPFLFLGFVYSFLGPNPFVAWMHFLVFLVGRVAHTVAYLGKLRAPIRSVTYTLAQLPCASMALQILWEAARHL

Row | SMILES | IC50 [1] [nM] | further results
1 | Cn1cncc1C(=O)NCc1ccc(Cl)c(Nc2nc3cc(C(=O)N[C@H]4CC[C@H](C(F)(F)F)CC4)c(N4CC5CC5C4)cc3n2C)c1Cl (stereo partly shown) [Example 217] | > 100 | –
2 | Cn1c(Nc2c(Cl)ccc(CNC(=O)C(C)(C)C)c2F)nc2cc(C(=O)N[C@H]3CC[C@H](C(F)(F)F)CC3)c(N3CCC(C(F)(F)F)C3)cc21 (stereo partly shown) [Example 6] | 4 | –
3 | Cn1c(Nc2c(Cl)ccc(CNC(=O)c3cc[nH]n3)c2Cl)nc2cc(C(=O)NCCC(F)(F)F)c(N3CCC(C(F)(F)F)CC3)cc21 [Example 184] | > 100 | –
4 | Cn1c(Nc2c(Cl)ccc(CNC(=O)C(C)(C)F)c2Cl)nc2cc(C(=O)NCCC(F)(F)F)c(N3CCC4(CC3)CC4)cc21 [Example 147] | 2 | –
5 | Cn1c(Nc2c(Cl)ccc(CNC(=O)c3cccc[n+]3[O-])c2Cl)nc2cc(C(=O)NCCC(F)(F)F)c(N3CCC(C(F)(F)F)CC3)cc21 [Example 174] | > 100 | –
6 | Cn1c(Nc2c(Cl)ccc(CNC(=O)C(C)(C)C)c2Cl)nc2cc(C(=O)NCC(F)(F)C(F)(F)F)c(N3CCC(F)CC3)cc21 [Example 151] | 1.4 | –
7 | CC(C)(C)C(=O)NCc1ccc(Cl)c(Nc2nc3cc(C(=O)Nc4ccc(OC(F)(F)F)cc4)c(N4CCOCC4)cc3n2CCC(N)=O)c1Cl [Example 268] | 6.5 | –
8 | Cn1c(Nc2c(Cl)ccc(CNC(=O)c3n[nH]c4c3CCC4)c2Cl)nc2cc(C(=O)NCCC(F)(F)F)c(N3CCC(C(F)(F)F)CC3)cc21 [Example 183] | > 100 | –
9 | Cn1c(Nc2c(Cl)ccc(CNC(=O)C(C)(C)C)c2Cl)nc2cc(C(=O)N[C@H]3CC[C@H](C(F)(F)F)CC3)c(N3CCC(F)(F)C3)cc21 [Example 20, N-(trans-4-Trifluoromethyl-cyclohexyl)-2-{2,6-dichloro-3-[(2,2-dimethyl-propionylamino)-methyl]-phenylamino}-6-[3,3-difluoro-pyrrolidinyl]-1-methyl-1H-benzimidazole-5-carboxylic acid amide] | 1 | IC50 (Table C comparison of selected benzimidazoles, read-out: Cell IC50): 1 nM
10 | Cn1c(Nc2c(Cl)ccc(CNC(=O)c3cc[nH]n3)c2Cl)nc2cc(C(=O)N[C@H]3CC[C@H](C(F)(F)F)CC3)c(N3CC4CC4C3)cc21 (stereo partly shown) [Example 230] | 40 | –
11 | Cc1n[nH]c(CN(C)c2cc3c(cc2C(=O)N[C@H]2CC[C@H](C(F)(F)F)CC2)nc(Nc2c(Cl)ccc(CNC(=O)C(C)(C)F)c2Cl)n3C)n1 [Example 115] | 2 | –
12 | Cn1nc(C(=O)NCc2ccc(Cl)c(Nc3nc4cc(C(=O)NCCC(F)(F)F)c(N5CCC(C(F)(F)F)CC5)cc4n3C)c2Cl)cc1N [Example 180] | > 100 | –
13 | COc1ncccc1C(=O)NCc1ccc(Cl)c(Nc2nc3cc(C(=O)N[C@H]4CC[C@H](C(F)(F)F)CC4)c(N4CC5CC5C4)cc3n2C)c1Cl (stereo partly shown) [Example 211] | 106 | –
14 | COc1cncc(C(=O)NCc2ccc(Cl)c(Nc3nc4cc(C(=O)N[C@H]5CC[C@H](C(F)(F)F)CC5)c(N5CC6CC6C5)cc4n3C)c2Cl)c1 (stereo partly shown) [Example 200] | > 100 | –
15 | CC(C)(C)C(=O)NCc1ccc(Cl)c(Nc2nc3cc(C(=O)Nc4ccc(OC(F)(F)F)cc4)c(N4CC[C@@H](F)C4)cc3n2CC(F)F)c1Cl [Example 77, (R)—N-(4-Trifluoromethoxy-phenyl)-2-{2,6-dichloro-3-[(2,2-dimethyl-propionylamino)-methyl]-phenylamino}-6-[3-fluoro-pyrrolidinyl]-1-(2,2-difluorethyl)-1H-benzimidazole-5-carboxylic acid amide] | 2 | –
16 | Cn1c(Nc2c(Cl)ccc(CNC(=O)C(C)(C)C)c2Cl)nc2cc(C(=O)NC3CC(F)(F)C3)c(NCC(F)F)cc21 [Example 16] | 197 | –
17 | Cc1cc(C)nc(C(=O)NCc2ccc(Cl)c(Nc3nc4cc(C(=O)N[C@H]5CC[C@H](C(F)(F)F)CC5)c(N5CC6CC6C5)cc4n3C)c2Cl)c1 (stereo partly shown) [Example 202] | 57 | –
18 | Cn1c(Nc2c(Cl)ccc(CNC(=O)C(C)(C)F)c2Cl)nc2cc(C(=O)NCC(F)(F)C(F)(F)F)c(N3CCOCC3)cc21 [Example 153] | 4.6 | –
19 | Cc1nc(N)sc1C(=O)NCc1ccc(Cl)c(Nc2nc3cc(C(=O)N[C@H]4CC[C@H](C(F)(F)F)CC4)c(N4CC5CC5C4)cc3n2C)c1Cl (stereo partly shown) [Example 225] | 71 | –
20 | Cn1c(Nc2c(Cl)ccc(CNC(=O)c3cccc(C#N)n3)c2Cl)nc2cc(C(=O)N[C@H]3CC[C@H](C(F)(F)F)CC3)c(N3CC4CC4C3)cc21 (stereo partly shown) [Example 208] | 21 | –
21 | Cn1c(Nc2c(Cl)ccc(CNC(=O)C(C)(C)F)c2Cl)nc2cc(C(=O)N[C@H]3CC[C@H](C(F)(F)F)CC3)c(N3CCC(C(C)(C)O)CC3)cc21 [Example 124] | 2 | –
22 | Cc1n[nH]c(CN(C)c2cc3c(cc2C(=O)Nc2ccc(OC(F)(F)F)cc2)nc(Nc2c(Cl)ccc(CNC(=O)C(C)(C)F)c2Cl)n3C)n1 [Example 143] | 2.6 | –
23 | COc1cccc(C(=O)NCc2ccc(Cl)c(Nc3nc4cc(C(=O)N[C@H]5CC[C@H](C(F)(F)F)CC5)c(N5CC6CC6C5)cc4n3C)c2Cl)n1 (stereo partly shown) [Example 204] | 49 | –
24 | Cn1c(Nc2c(Cl)ccc(CNC(=O)C(C)(C)O)c2Cl)nc2cc(C(=O)N[C@H]3CC[C@H](C(F)(F)F)CC3)c(N3CC4CC4C3)cc21 (stereo partly shown) [Example 190] | 9 | –
25 | Cn1c(Nc2c(Cl)ccc(CNC(=O)c3cc(C#N)ccn3)c2Cl)nc2cc(C(=O)N[C@H]3CC[C@H](C(F)(F)F)CC3)c(N3CC4CC4C3)cc21 (stereo partly shown) [Example 209] | 6.5 | –
26 | Cn1c(Nc2c(Cl)ccc(CNC(=O)[C@@](C)(O)C(F)(F)F)c2Cl)nc2cc(C(=O)N[C@H]3CC[C@H](C(F)(F)F)CC3)c(N3CC4CC4C3)cc21 (stereo partly shown) [Example 193] | 2.5 | –
27 | Cn1c(Nc2c(Cl)ccc(CNC(=O)C3(C)CC3)c2Cl)nc2cc(C(=O)N[C@H]3CC[C@H](C(F)(F)F)CC3)c(N3CC4CC4C3)cc21 (stereo partly shown) [Example 187] | 1 | –
28 | CC(C)(C)C(=O)NCc1ccc(Cl)c(Nc2nc3cc(C(=O)N[C@H]4CC[C@H](C(F)(F)F)CC4)c(N4CCOCC4)cc3n2CC(F)F)c1Cl [Example 71, N-(trans-4-Trifluoromethyl-cyclohexyl)-2-{2,6-dichloro-3-[(2,2-dimethyl-propionylamino)-methyl]-phenylamino}-6-[morpholin-1-yl]-(2,2-difluoroethyl)-benzimidazole-5-carboxylic acid amide] | – | IC50 (mPGES-1 inhibitory effect IC50 in the cell assay, IL-1β 5 ng/ml, 10 nM arachidonic acid, 20-24 h): < 1 nM
29 | Cc1n[nH]c(CN(C)c2cc3c(cc2C(=O)NCC(F)(F)C(F)(F)F)nc(Nc2c(Cl)ccc(CNC(=O)C(C)(C)F)c2Cl)n3C)n1 [Example 152] | 17 | –
30 | Cc1noc(C)c1C(=O)NCc1ccc(Cl)c(Nc2nc3cc(C(=O)N[C@H]4CC[C@H](C(F)(F)F)CC4)c(N4CC5CC5C4)cc3n2C)c1Cl (stereo partly shown) [Example 224] | 67 | –
